# Data published in patent publication US11945806B2, “Stabilization of amyloidogenic immunoglobulin light chains” (The Scripps Research Institute, priority 2019, dated 2024).
# Experiments:
# 5J8 Fab (LC:HC dimer) = assay: Binding of 1 by fluorescence; set-up: species or system human; conditions: 1 at 1 μM
# JTO-V [1] = target: T1, JTO-V (Homo sapiens, UniProt P01721); assay: NMR ZZ-exchange experiment; assay type: binding; conditions: JTO-V2•1 complex
# Description: Chemical exchange saturation transfer (CEST) experiments were acquired on WIL-V samples at 0.4 mM in the presence of 0.2 or 0.3 mM 1 using a multi-site excitation scheme (16). […] Further details of the analysis of these experiments are given in the Supplemental NMR Analysis described below.
# WIL-FL [2] = target: T2, WIL-FL (Homo sapiens, UniProt P01721); assay: Equilibrium unfolding, urea titration; assay type: biochemical; conditions: 1 at 100 μM or 5 at 50 μM, WIL-FL 5 μM; 1.4 M without ligand
# Description: Equilibrium unfolding. WIL-FL (5 μM) was titrated against urea in 50 mM sodium phosphate buffer, pH 7.0, containing 50 μM 5 or 100 μM 1. After incubation overnight at 25° C., intrinsic tryptophan fluorescence emission spectra were measured using a Jasco 8600 fluorimeter (μex=280 nm, μem=300-420 nm). Average wavelength (also known as center of spectral mass) values were calculated using the equation: […]
# λi and Ii are the are the wavelength and intensity at i, respectively. Average wavelength data were normalized for comparison. […] Midpoint urea concentrations were calculated by fitting the titration data to a 2-state unfolding equation: […]
# x is the urea concentration (M), G is the free energy of unfolding (kJ mol^−1), m is the denaturant dependence of the unfolding reaction (kJ mol^−1 M^−1), R is the ideal gas constant, T is the temperature in K, a and c are the fluorescence of the folded and unfolded states, and b and d are the denaturant dependence of the fluorescence of the folded and unfolded states, respectively.
# [3] = test system: WIL-FL and JTO-FL with residue 46 mutated to leucine; assay: Fluorogenic coumarin titration, residue 46 to leucine variants; assay type: binding, human
# Source text: The residues used by JTO to bind 1 are highly conserved (FIG. 3d). Residues Y36, P44, Y87 and F98 are present in 88, 99, 95 and 100% of all human germline LC genes, respectively, whereas T46 is only present in two functional germline genes.
# WIL-FL [4] = target: T2, WIL-FL; assay: PK proteolysis of unlabeled WIL-FL by SDS-PAGE; conditions: WIL-FL 10 μM, small molecule 100 μM, t=2 h
# Description: The experiment in FIG. 1b measured simultaneous proteolysis of labeled and unlabeled LC by adding 20 nM WIL-FL* or JTO-FL* to 5 μM WIL-FL or JTO-FL, respectively. Fluorescein fluorescence images of the SDS-PAGE gels were recorded, after which the gels were Coomassie stained and imaged.
# [5] = test system: WIL-FL and JTO-FL variants with F98D mutation; assay: Fluorogenic coumarin titration, F98D variants; assay type: binding, human; conditions: 1 at 1 μM; presence or absence of the C214 inter-chain disulfide bond
# Description: (§1) Fluorogenic coumarin titration. LCs were concentrated to 200 μM in centrifugal concentrators with a 10 kDa membrane, unless the available material was limiting. […] Fluorescence of 1 was measured on a Gemini plate reader (Molecular Devices) using an excitation wavelength of 373 nm and emission wavelength of 445 nm. Data were normalized platewise to the plateau fluorescence value for WIL-FL to calculate the fraction of 1 bound.
# To further test the hypothesis that 1 binds at the interface between the V-domains, we measured binding of 1 to WIL-FL and JTO-FL variants with mutations designed to disrupt the dimer (22). The F98D mutation, which disrupts the V-domain-V-domain interface, rendered binding of 1 (1 μM) undetectable in the presence or absence of the C214 inter-chain disulfide bond (FIG. 2d, right panel).
# JTO-V [6] = target: T1, JTO-V; assay: NMR native-state hydrogen-deuterium exchange; assay type: biochemical; conditions: 1 at 500 μM
# Description: (§2) Native-state hydrogen exchange experiments were measured for WIL-V at 0.2 mM and JTO-V at 0.1 mM with or without 0.5 mM 1. […] Per-residue exchange rates k, were converted to free energies using the equation where krc are the residue-specific exchange rates of unprotected amides (18):
# (§3) To verify that binding of 1 reduces LC unfolding under non-denaturing conditions, we measured residue-specific hydrogen-deuterium exchange rates by NMR of WIL-V and JTO-V (100 μM) in the absence of or with 1 (500 μM). These rates (the decrease in intensity of the HSQC peak associated with each amide) are converted to free energies that report on each amide's folding equilibrium by normalizing for the published exchange rates of amides in unstructured peptides.
# WIL-V [7] = target: T3, WIL-V (Homo sapiens, UniProt P01721); assay: NMR native-state hydrogen-deuterium exchange; assay type: biochemical; conditions: 1 at 500 μM
# Description: as §2, §3
# WIL-FL* [8] = target: WIL-FL* (Homo sapiens, UniProt P01721, K101C, form not given); assay: PCFP assay with thermolysin; conditions: mean ± sd, n=3; 6.75 μM compound
# WIL-FL [9] = target: T2, WIL-FL; assay: Fluorogenic coumarin titration; assay type: binding; conditions: 0.05 in buffer
# WIL-V [10] = target: T3, WIL-V; assay: Sedimentation velocity analytical ultracentrifugation (SV-AUC); conditions: LC 20 μM, 1 at 100 μM
# Description: Analytical Ultracentrifugation (AUC). […] Sedimentation was measured by absorbance at 280 nm. Data were processed using SedFit (6).
# [11] = target: human serum albumin (HSA) (Homo sapiens, UniProt P02768); assay: Binding of 1 to albumin by fluorescence of 1
# Source text: Therefore, kinetic stabilizer binding selectivity to FL LCs in preference to other plasma proteins is important to minimize the proportion of free FL LC. Albumin binds many small molecules in blood, typically with μM KD values.
# [12] = test system: κ1-33 LCs (AL12-FL, κ I O18/O8-FL); assay: Fluorogenic coumarin titration, κ1-33 LCs; assay type: binding, human; conditions: 1 at 1 μM
# Description: as §1
# Of the two classes of human LCs, λ and κ, λ LCs are more commonly observed in AL, but a fraction of patients secrete κ1-33 LCs (12, 33). […] Recombinant expression of these κ1-33 LCs using a similar protocol to that used for λ6-57 LCs yielded both monomeric and dimeric LCs, as shown by SV-AUC (SI Appendix FIG. S7). […] Binding of an excess of κ1-33 LCs (20 μM) to 1 (1 μM) afforded FL LC•1 fluorescence (FIG. 2f, inset).
# WIL-FL* [13] = assay: FP artefact counterscreen (compounds added after 24 h of proteinase K treatment); assay type: biochemical, human; conditions: compound added after 24 h PK treatment; mean ± sd, n=3
# Description: Secondly, to remove compounds that interfere with the FP measurement, the primary screen was repeated in triplicate but compounds were added after 24 h of proteinase K treatment (FIG. 1f). […] Bona fide hits should retain no FP beyond the low control.
# Chain of human serum albumin (HSA) (P02768 25-609): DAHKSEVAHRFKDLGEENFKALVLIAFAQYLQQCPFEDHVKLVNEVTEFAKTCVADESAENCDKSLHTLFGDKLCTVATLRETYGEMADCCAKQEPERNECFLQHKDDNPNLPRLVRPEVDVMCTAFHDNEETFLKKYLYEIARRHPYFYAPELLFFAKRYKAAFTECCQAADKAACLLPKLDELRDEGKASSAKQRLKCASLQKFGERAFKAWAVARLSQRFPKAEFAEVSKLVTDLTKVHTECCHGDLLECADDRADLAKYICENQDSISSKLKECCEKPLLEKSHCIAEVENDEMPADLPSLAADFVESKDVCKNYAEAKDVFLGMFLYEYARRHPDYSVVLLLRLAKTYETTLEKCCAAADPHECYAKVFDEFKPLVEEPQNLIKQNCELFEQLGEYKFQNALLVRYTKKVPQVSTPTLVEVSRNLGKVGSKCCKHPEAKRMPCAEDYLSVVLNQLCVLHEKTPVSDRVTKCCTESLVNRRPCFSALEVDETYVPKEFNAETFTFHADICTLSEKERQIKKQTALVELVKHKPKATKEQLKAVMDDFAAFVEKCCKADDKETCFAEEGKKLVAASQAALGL
smiles,measurement,setting,value
"CCN(CC)c1ccc2c(C)cc(=O)oc2c1 [Compound 1, 7-diethylamino-4-methylcoumarin]",binding to 1 as measured by fluorescence,5J8 Fab (LC:HC dimer),no apparent binding
same,off-rate,JTO-V [1],57 ± 2 s⁻¹
same,midpoint concentration of urea required to unfold the FL LC,WIL-FL [2],2.0 M
same,binding affinity of 1,[3],slightly enhances the binding affinity
same,protection of WIL-FL against PK proteolysis,WIL-FL [4],protects this FL LC against PK proteolysis
same,binding of 1,[5],undetectable
same,average stabilization (free energy from exchange rates),JTO-V [6],0.6 kcal/mol
same,average stabilization (free energy from exchange rates),WIL-V [7],0.6 kcal/mol
same,Thermolysin activity (%),WIL-FL* [8],36.4 ± 2.0%
same,FP of 1 in the WIL-FL•1 complex,WIL-FL [9],0.35
same,size distribution (SV-AUC),WIL-V [10],increase
same,Kd,[11],37 ± 3 µM
same,affinity of 1 for albumin in the presence of diflunisal,[11]; 100 μM diflunisal,reduced
same,binding of 1,[12],weaker than binding to λ6-57 LCs
same,Counterscreen activity (%),WIL-FL* [13],−8.07 ± 3.3%
